Results taken from patent publication US8535693B2, “Topical formulation(s) for the treatment of inflammation, skin and mucosal disorders and other diseases thereof” (Laila Pharmaceuticals Private Limited, priority 2008, dated 2013).

Legend:
phosphorylase kinase = settings: Reddy & Aggarwal, FEBS Lett 1994; cited from earlier work
[1] = Particle size distribution study (Malvern particle size analyzer, laser diffraction); type: physicochemical; settings: nanoemulsified vs unformulated
Description: This study proves that a curcumin molecule which is originally 374 nm in the unformulated form is emulsified into 8-11 nm sized particles through a unique process, which has been indicated for this enhanced transport and efficacy of curcumin through the formulation. The study was conducted using Malvern particle size analyzer. The map of scattering intensity versus angle is the primary source of information used to calculate the particle size. The scattering of particles is accurately predicted by the Mie scattering model allowing accurate sizing across the widest possible dynamic range. During the laser diffraction measurement, particles are passed through a focused laser beam. These particles scatter light at an angle that is inversely proportional to their size. The angular intensity of the scattered light is then measured by a series of photosensitive detectors. The advantage of this study is that there is no sample preparation involved. […] Additional peaks can be observed which is contributed by the high molecular weight excipients used to prepare the formulation.

psoriasis = settings: Heng et al., Br J Dermatol 2000; cited from earlier work
[2] = test system: TNFα-induced gene expression in Human Microvascular Endothelial Cells (HMEC); test: Microarray study of TNFα-induced gene expression in HMEC; type: cell-based
Description: Effects of BDMC/Curcumin/Curcuminoids were Studied in TNFα-Induced Gene Expression in Human Microvascular Endothelial Cells (HMEC):
Micro array analysis was carried out to identify the sets of gene differentially expressed in TNFα treated endothelial cells pretreated/not pretreated with demethylated curcuminoids (BMDC, curcumin)/with curcuminoids. Data acquisition and image processing were performed using GCOS (Gene Chip Operating Software, Affymetrix). Genes that were >2.0 fold up regulated in TNFα-treated group compared to TNFα untreated control group were selected and subjected to hierarchical clustering. […] These sub-clusters were subjected to further functional analysis using DAVID (Database for Annotation, Visualization and Integrated Discovery NIAID, NIH) (FIG. 10, 11). Major known pathways (KEGG, Kyoto Encyclopedia of Genes and Genomes) identified in each of the cluster have been illustrated as pathway maps marking the candidate genes.
GeneChip™ screening of TNFα-inducible transcriptome of HMEC identified 1195 probe sets that were induced by a magnitude of two-fold or higher.

particle size [1] [nm] | particle size ([1]; listed as unformulated curcumin 98%) [nm] | SMILES | phosphorylase kinase inhibition (phosphorylase kinase) | resolution of psoriasis (psoriasis) | effect on TNFα ([2]; HMEC challenged with TNFα) | number of TNFα inducible genes sensitive to the substance ([2]; microvascular endothelial cells challenged with TNFα, 1195 probe sets induced two-fold or higher) [genes]
374 | 373 | COc1cc(/C=C/C(=O)CC(=O)/C=C/c2ccc(O)c(OC)c2)ccc1O [curcumin] | selective phosphorylase kinase inhibitor | leads to resolution of psoriasis | – | –
– | – | O=C(/C=C/c1ccc(O)c(O)c1)CC(=O)/C=C/c1ccc(O)c(O)c1 [bis-O-demethyl curcumin, Bis-O-Demethyl curcumin] | – | – | antagonizing effects on TNFα | 1065
